Strand notation (5' to 3'): a small letter for the sugar, then the base; units joined by * are phosphorothioate-linked, units joined directly phosphodiester-linked; [ ] holds rarer units or linkages, { } end groups; capitals alone tell only the bases. e = 2'-O-(2-methoxyethyl) (MOE); [5mC] = 5-methylcytosine; d = 2'-deoxy (DNA)
Test system: human Factor 7 mRNA
Assay: Antisense inhibition of human Factor 7 mRNA in HepB3 cells, 50 nM antisense oligonucleotide, lipofectin
Assay type: cell-based
Conditions: for % Inhibition: Table 6, 50 nM, lipofectin, approximately 24 hours; for % Inhibition of human Factor 7 mRNA levels: gapmers targeted to nucleobases 4868 to 4899 of SEQ ID NO: 1, Table 8
Method in brief: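 After transfection of wells containing 4,000 cells, treatment ran for approximately 24 h. RIBOGREEN®-measured total RNA served for normalisation, and inhibition was calculated as a percentage of untreated control.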

[1] = oligonucleotides targeted to nucleobases 11830 to 11869 of SEQ ID NO: 1 (Table 9)
[2] = oligonucleotides targeted to nucleobases 13760 to 13789 of SEQ ID NO: 1 (Table 10)
[3] = oligonucleotides targeted to nucleobases 14707 to 14732 of SEQ ID NO: 1 (Table 11)
[4] = oligonucleotides targeted to nucleobases 15098 to 15122 of SEQ ID NO: 1 (Table 12)

With “422171 (antisense eG*eG*e[5mC]*dT*dG*dA*dG*dG*dA*dG*dA*d[5mC]*dA*dA*dT*dG*dG*eT*e[5mC]*eA) [compound 422171]” the “% Inhibition (human Factor 7 mRNA levels)” value [1] was 61%.
With “422172 (antisense eT*eG*eG*d[5mC]*dT*dG*dA*dG*dG*dA*dG*dA*d[5mC]*dA*dA*dT*dG*eG*eT*e[5mC]) [compound 422172]” the “% Inhibition (human Factor 7 mRNA levels)” value [1] was 39%.
With “422173 (antisense e[5mC]*eT*eG*dG*d[5mC]*dT*dG*dA*dG*dG*dA*dG*dA*d[5mC]*dA*dA*dT*eG*eG*eT) [compound 422173]” the “% Inhibition (human Factor 7 mRNA levels)” value [1] was 51%.
For “422174 (antisense eG*e[5mC]*eT*dG*dG*d[5mC]*dT*dG*dA*dG*dG*dA*dG*dA*d[5mC]*dA*dA*eT*eG*eG) [compound 422174]”, the “% Inhibition (human Factor 7 mRNA levels)” value [1] was 55%.
“422175 (antisense e[5mC]*eG*e[5mC]*d[5mC]*dG*dG*d[5mC]*dT*d[5mC]*dT*dG*d[5mC]*dT*d[5mC]*dA*dT*d[5mC]*e[5mC]*e[5mC]*e[5mC]) [compound 422175]” was tested, and the “% Inhibition (human Factor 7 mRNA levels)” value [2] was 69%.
In the case of “422176 (antisense e[5mC]*e[5mC]*eG*d[5mC]*d[5mC]*dG*dG*d[5mC]*dT*d[5mC]*dT*dG*d[5mC]*dT*d[5mC]*dA*dT*e[5mC]*e[5mC]*e[5mC]) [compound 422176]”, the “% Inhibition (human Factor 7 mRNA levels)” value [2] is reported as 52%.
With “422178 (antisense eA*e[5mC]*e[5mC]*d[5mC]*dG*d[5mC]*d[5mC]*dG*dG*d[5mC]*dT*d[5mC]*dT*dG*d[5mC]*dT*d[5mC]*eA*eT*e[5mC]) [compound 422178]” the “% Inhibition (human Factor 7 mRNA levels)” value [2] was 37%.
In the case of “422179 (antisense e[5mC]*eA*e[5mC]*d[5mC]*d[5mC]*dG*d[5mC]*d[5mC]*dG*dG*d[5mC]*dT*d[5mC]*dT*dG*d[5mC]*dT*e[5mC]*eA*eT) [compound 422179]”, the “% Inhibition (human Factor 7 mRNA levels)” value [2] is reported as 43%.
For “422180 (antisense e[5mC]*e[5mC]*eA*d[5mC]*d[5mC]*d[5mC]*dG*d[5mC]*d[5mC]*dG*dG*d[5mC]*dT*d[5mC]*dT*dG*d[5mC]*eT*e[5mC]*eA) [compound 422180]”, the “% Inhibition (human Factor 7 mRNA levels)” value [2] was 54%.
In the case of “422181 (antisense eG*e[5mC]*e[5mC]*dA*d[5mC]*d[5mC]*d[5mC]*dG*d[5mC]*d[5mC]*dG*dG*d[5mC]*dT*d[5mC]*dT*dG*e[5mC]*eT*e[5mC]) [compound 422181]”, the “% Inhibition (human Factor 7 mRNA levels)” value [2] is reported as 66%.
For “422182 (antisense e[5mC]*eG*e[5mC]*d[5mC]*dA*d[5mC]*d[5mC]*d[5mC]*dG*d[5mC]*d[5mC]*dG*dG*d[5mC]*dT*d[5mC]*dT*eG*e[5mC]*eT) [compound 422182]”, the “% Inhibition (human Factor 7 mRNA levels)” value [2] was 11%.
For “422184 (antisense eT*eG*e[5mC]*dG*d[5mC]*d[5mC]*dA*d[5mC]*d[5mC]*d[5mC]*dG*d[5mC]*d[5mC]*dG*dG*d[5mC]*dT*e[5mC]*eT*eG) [compound 422184]”, the “% Inhibition (human Factor 7 mRNA levels)” value [2] was 55%.
For “422185 (antisense e[5mC]*eT*eG*d[5mC]*dG*d[5mC]*d[5mC]*dA*d[5mC]*d[5mC]*d[5mC]*dG*d[5mC]*d[5mC]*dG*dG*d[5mC]*eT*e[5mC]*eT) [compound 422185]”, the “% Inhibition (human Factor 7 mRNA levels)” value [2] was 48%.
“422186 (antisense eG*eG*eA*dA*dG*dA*dA*dG*dG*dG*dA*d[5mC]*dG*dG*dA*dA*dG*eG*eT*eG) [compound 422186]” was tested, and the “% Inhibition” value was 14%.
For “422187 (antisense e[5mC]*eG*eG*dA*dA*dG*dA*dA*dG*dG*dG*dA*d[5mC]*dG*dG*dA*dA*eG*eG*eT) [compound 422187]”, the “% Inhibition” value was 28%.
In the case of “422188 (antisense eG*e[5mC]*eG*dG*dA*dA*dG*dA*dA*dG*dG*dG*dA*d[5mC]*dG*dG*dA*eA*eG*eG) [compound 422188]”, the “% Inhibition” value is reported as 37%.
In the case of “422189 (antisense e[5mC]*eG*e[5mC]*dG*dG*dA*dA*dG*dA*dA*dG*dG*dG*dA*d[5mC]*dG*dG*eA*eA*eG) [compound 422189]”, the “% Inhibition” value is reported as 0%.
“422190 (antisense eG*e[5mC]*eG*d[5mC]*dG*dG*dA*dA*dG*dA*dA*dG*dG*dG*dA*d[5mC]*dG*eG*eA*eA) [compound 422190]” was tested, and the “% Inhibition” value was 12%.
For “422191 (antisense eA*eG*e[5mC]*dG*d[5mC]*dG*dG*dA*dA*dG*dA*dA*dG*dG*dG*dA*d[5mC]*eG*eG*eA) [compound 422191]”, the “% Inhibition” value was 27%.
“422192 (antisense eG*eA*eG*d[5mC]*dG*d[5mC]*dG*dG*dA*dA*dG*dA*dA*dG*dG*dG*dA*e[5mC]*eG*eG) [compound 422192]” was tested, and the “% Inhibition” value was 27%.
For “422193 (antisense eT*eG*eA*dG*d[5mC]*dG*d[5mC]*dG*dG*dA*dA*dG*dA*dA*dG*dG*dG*eA*e[5mC]*eG) [compound 422193]”, the “% Inhibition” value was 6%.
With “422194 (antisense e[5mC]*eT*eG*dA*dG*d[5mC]*dG*d[5mC]*dG*dG*dA*dA*dG*dA*dA*dG*dG*eG*eA*e[5mC]) [compound 422194]” the “% Inhibition” value was 11%.
With “422195 (antisense eA*e[5mC]*eT*dG*dA*dG*d[5mC]*dG*d[5mC]*dG*dG*dA*dA*dG*dA*dA*dG*eG*eG*eA) [compound 422195]” the “% Inhibition” value was 37%.
“422196 (antisense eT*eA*e[5mC]*dT*dG*dA*dG*d[5mC]*dG*d[5mC]*dG*dG*dA*dA*dG*dA*dA*eG*eG*eG) [compound 422196]” was tested, and the “% Inhibition” value was 2%.
“422197 (antisense eT*eT*eA*d[5mC]*dT*dG*dA*dG*d[5mC]*dG*d[5mC]*dG*dG*dA*dA*dG*dA*eA*eG*eG) [compound 422197]” was tested, and the “% Inhibition” value was 26%.
In the case of “422198 (antisense eG*eT*eT*dA*d[5mC]*dT*dG*dA*dG*d[5mC]*dG*d[5mC]*dG*dG*dA*dA*dG*eA*eA*eG) [compound 422198]”, the “% Inhibition” value is reported as 50%.
In the case of “422199 (antisense eG*eG*eT*dT*dA*d[5mC]*dT*dG*dA*dG*d[5mC]*dG*d[5mC]*dG*dG*dA*dA*eG*eA*eA) [compound 422199]”, the “% Inhibition” value is reported as 65%.
In the case of “422200 (antisense e[5mC]*e[5mC]*eT*dG*dA*dG*dG*d[5mC]*d[5mC]*dA*dG*d[5mC]*dA*dG*dA*dT*d[5mC]*eA*e[5mC]*eG) [compound 422200]”, the “% Inhibition (human Factor 7 mRNA levels)” value [3] is reported as 58%.
In the case of “422201 (antisense eG*e[5mC]*e[5mC]*dT*dG*dA*dG*dG*d[5mC]*d[5mC]*dA*dG*d[5mC]*dA*dG*dA*dT*e[5mC]*eA*e[5mC]) [compound 422201]”, the “% Inhibition (human Factor 7 mRNA levels)” value [3] is reported as 71%.
In the case of “422202 (antisense eA*eG*e[5mC]*d[5mC]*dT*dG*dA*dG*dG*d[5mC]*d[5mC]*dA*dG*d[5mC]*dA*dG*dA*eT*e[5mC]*eA) [compound 422202]”, the “% Inhibition (human Factor 7 mRNA levels)” value [3] is reported as 49%.
In the case of “422203 (antisense e[5mC]*eA*eG*d[5mC]*d[5mC]*dT*dG*dA*dG*dG*d[5mC]*d[5mC]*dA*dG*d[5mC]*dA*dG*eA*eT*e[5mC]) [compound 422203]”, the “% Inhibition (human Factor 7 mRNA levels)” value [3] is reported as 52%.
“422204 (antisense eG*e[5mC]*eA*dG*d[5mC]*d[5mC]*dT*dG*dA*dG*dG*d[5mC]*d[5mC]*dA*dG*d[5mC]*dA*eG*eA*eT) [compound 422204]” was tested, and the “% Inhibition (human Factor 7 mRNA levels)” value [3] was 72%.
With “422205 (antisense eA*eG*e[5mC]*dA*dG*d[5mC]*d[5mC]*dT*dG*dA*dG*dG*d[5mC]*d[5mC]*dA*dG*d[5mC]*eA*eG*eA) [compound 422205]” the “% Inhibition (human Factor 7 mRNA levels)” value [3] was 63%.
In the case of “422206 (antisense e[5mC]*eA*eG*d[5mC]*dA*dG*d[5mC]*d[5mC]*dT*dG*dA*dG*dG*d[5mC]*d[5mC]*dA*dG*e[5mC]*eA*eG) [compound 422206]”, the “% Inhibition (human Factor 7 mRNA levels)” value [3] is reported as 65%.
With “422207 (antisense e[5mC]*eA*e[5mC]*dA*d[5mC]*dA*dT*dG*dG*dA*dG*dT*d[5mC]*dA*dG*d[5mC]*dA*eT*e[5mC]*eG) [compound 422207]” the “% Inhibition (human Factor 7 mRNA levels)” value [4] was 41%.
In the case of “422208 (antisense eG*e[5mC]*eA*d[5mC]*dA*d[5mC]*dA*dT*dG*dG*dA*dG*dT*d[5mC]*dA*dG*d[5mC]*eA*eT*e[5mC]) [compound 422208]”, the “% Inhibition (human Factor 7 mRNA levels)” value [4] is reported as 56%.
“422209 (antisense eA*eG*e[5mC]*dA*d[5mC]*dA*d[5mC]*dA*dT*dG*dG*dA*dG*dT*d[5mC]*dA*dG*e[5mC]*eA*eT) [compound 422209]” was tested, and the “% Inhibition (human Factor 7 mRNA levels)” value [4] was 47%.
For “422210 (antisense e[5mC]*eA*eG*d[5mC]*dA*d[5mC]*dA*d[5mC]*dA*dT*dG*dG*dA*dG*dT*d[5mC]*dA*eG*e[5mC]*eA) [compound 422210]”, the “% Inhibition (human Factor 7 mRNA levels)” value [4] was 25%.
In the case of “422211 (antisense eA*e[5mC]*eA*dG*d[5mC]*dA*d[5mC]*dA*d[5mC]*dA*dT*dG*dG*dA*dG*dT*d[5mC]*eA*eG*e[5mC]) [compound 422211]”, the “% Inhibition (human Factor 7 mRNA levels)” value [4] is reported as 42%.
“422212 (antisense eG*eA*e[5mC]*dA*dG*d[5mC]*dA*d[5mC]*dA*d[5mC]*dA*dT*dG*dG*dA*dG*dT*e[5mC]*eA*eG) [compound 422212]” was tested, and the “% Inhibition (human Factor 7 mRNA levels)” value [4] was 30%.
“422213 (antisense eT*e[5mC]*eT*dG*d[5mC]*dA*dG*dG*dA*dG*d[5mC]*dG*dG*d[5mC]*d[5mC]*dT*dA*eA*eA*eT) [compound 422213]” was tested, and the “% Inhibition of human Factor 7 mRNA levels” value was 67%.
In the case of “422214 (antisense eT*eT*e[5mC]*dT*dG*d[5mC]*dA*dG*dG*dA*dG*d[5mC]*dG*dG*d[5mC]*d[5mC]*dT*eA*eA*eA) [compound 422214]”, the “% Inhibition of human Factor 7 mRNA levels” value is reported as 60%.
For “422216 (antisense eA*eG*eT*dT*d[5mC]*dT*dG*d[5mC]*dA*dG*dG*dA*dG*d[5mC]*dG*dG*d[5mC]*e[5mC]*eT*eA) [compound 422216]”, the “% Inhibition of human Factor 7 mRNA levels” value was 68%.
In the case of “422218 (antisense e[5mC]*eG*eA*dG*dT*dT*d[5mC]*dT*dG*d[5mC]*dA*dG*dG*dA*dG*d[5mC]*dG*eG*e[5mC]*e[5mC]) [compound 422218]”, the “% Inhibition of human Factor 7 mRNA levels” value is reported as 70%.

Reference: patent US9029337B2, “Modulation of factor 7 expression” (Isis Pharmaceuticals, Inc., priority 2007, dated 2015)
